Measurements taken from ChEMBL document CHEMBL6103630, “Discovery of Novel 2,4,5-Trisubstituted Pyrimidine Derivatives as Potent and Selective FGFR Inhibitors against Gatekeeper Mutants for the Treatment of NSCLC” (J Med Chem, 2025).
Active and inactive are the calls of the source. The rule behind the calls is not given here.

Tests used:
[1] = molecular target: Fibroblast growth factor receptor 3 (Homo sapiens, UniProt P22607, V555M)
[2] = molecular target: Fibroblast growth factor receptor 4 (Homo sapiens, UniProt P22455); assay: Inhibition of wild type FGFR4 (unknown origin) by caliper mobility shift assay
NCI-H1581 [3] = assay: Antitumor activity against human NCI-H1581 cells xenografted in BALB/c nude mouse assessed as induction of apoptosis in tumor by H and E staining based analysis; type: functional, cell-based
L6 = assay: Antitumor activity against rat L6 cells harboring FGFR1 V561M mutant xenografted in BALB/c nude mouse assessed as suppression of tumor cell proliferation at 30 to 60 mg/kg by Ki-67 staining based analysis; type: functional, organism-based; conditions: dose 30-60 mg/kg
[4] = molecular target: Fibroblast growth factor receptor 2 (Homo sapiens, UniProt P21802); assay: Binding affinity to FGFR2 (unknown origin) at 0.1 uM
NCI-H1581 [5] = assay: Inhibition of colony formation in human NCI-H1581 cells incubated for 48 hrs by crystal violet staining based assay; type: functional, cell-based; conditions: dose 10-40 nM
A549 = assay: Inhibition of colony formation in human A549 cells at 0.25 to 1.0 uM incubated for 48 hrs by crystal violet staining based assay; type: functional, cell-based; conditions: dose 0.25-1 µM
NCI-H1581 [6] = assay: Inhibition of DNA replication in human NCI-H1581 cells incubated for 1 hrs by EdU staining based analysis; type: functional, cell-based; conditions: dose 100.0 µM
NCI-H1581 [7] = assay: Inhibition of cell migration in human NCI-H1581 cells incubated upto 72 hrs by wound healing assay; type: functional, cell-based; conditions: dose 10-40 µM
NCI-H1581 [8] = assay: Inhibition of cell adhesion in human NCI-H1581 cells by crystal violet staining based analysis; type: functional; conditions: dose 10-40 nM
NCI-H1581 [9] = assay: Inhibition of AKT (unknown origin) phosphorylation in human NCI-H1581 cells at 10 to 40 nM by Western blotting analysis; type: cell-based; conditions: dose 10-40 nM
NCI-H1581 [10] = assay: Inhibition of AKT (unknown origin) phosphorylation in human NCI-H1581 cells at 40 nM by Western blotting analysis; type: cell-based
[11] = Cmax in male Sprague-Dawley rat at 2 mg/kg, iv by UHPLC-MS/MS analysis; type: ADME, organism-based; conditions: in vivo
[12] = Tmax in male Sprague-Dawley rat at 10 mg/kg, po by UHPLC-MS/MS analysis; type: ADME, organism-based; conditions: in vivo
[13] = Half life in male Sprague-Dawley rat at 10 mg/kg, po by UHPLC-MS/MS analysis; type: ADME, organism-based; conditions: in vivo
[14] = AUC(0 to infinity) in male Sprague-Dawley rat at 2 mg/kg, iv by UHPLC-MS/MS analysis; type: ADME, organism-based; conditions: in vivo
[15] = Oral bioavailability in male Sprague-Dawley rat at 2 mg/kg, iv by UHPLC-MS/MS analysis; type: ADME, organism-based; conditions: in vivo
[16] = Toxicity in ICR mouse assessed as change in body weight at 80 mg/kg, po measured after 7 days; type: organism-based; conditions: in vivo, 168 h, time 7 day
[17] = Toxicity in ICR mouse assessed as change in spleen weight at 80 mg/kg, po measured after 7 days; type: organism-based; conditions: in vivo, 168 h, time 7 day
[18] = Toxicity in ICR mouse assessed as change in kidney weight at 80 mg/kg, po measured after 7 days; type: organism-based; conditions: in vivo, 168 h, time 7 day
[19] = Hepatotoxicity in ICR mouse assessed as change in ALT level at 80 mg/kg, po; type: toxicity, organism-based; conditions: in vivo
[20] = Nephrotoxicity in ICR mouse assessed as change in Cr level at 80 mg/kg, po; type: toxicity, organism-based; conditions: in vivo
[21] = Toxicity in ICR mouse assessed as histopathological changes in kidney at 80 mg/kg, po by H and E staining based analysis; type: organism-based; conditions: in vivo
[22] = Antitumor activity against rat L6 cells harboring FGFR V561M mutant xenografted in BALB/c nude mouse assessed as tumor growth inhibition at 30 mg/kg relative to control; type: functional; conditions: read-out: TGI
[23] = Toxicity in ICR mouse assessed as drug tolerance at 80 mg/kg, po measured after 7 days; type: organism-based; conditions: in vivo, 168 h, time 7 day
[24] = Toxicity in BALB/c nude mouse xenografted with rat L6 cells harboring FGFR V561M mutant assessed as change in body weight at 30 to 60 mg/kg and measured daily; type: organism-based; conditions: in vivo, dose 30-60 mg/kg
[25] = Toxicity in BALB/c nude mouse xenografted with rat L6 cells harboring FGFR V561M mutant assessed as change in heart weight at 30 to 60 mg/kg and measured daily for 14 days; type: organism-based; conditions: in vivo, 336 h, dose 30-60 mg/kg, time 14 day
[26] = Toxicity in BALB/c nude mouse xenografted with rat L6 cells harboring FGFR V561M mutant assessed as change in liver weight at 30 to 60 mg/kg and measured daily for 14 days; type: organism-based; conditions: in vivo, 336 h, dose 30-60 mg/kg, time 14 day
[27] = Toxicity in BALB/c nude mouse xenografted with rat L6 cells harboring FGFR V561M mutant assessed as change in spleen weight at 30 to 60 mg/kg and measured daily for 14 days; type: organism-based; conditions: in vivo, 336 h, dose 30-60 mg/kg, time 14 day
[28] = Toxicity in BALB/c nude mouse xenografted with rat L6 cells harboring FGFR V561M mutant assessed as change in lung weight at 30 to 60 mg/kg and measured daily for 14 days; type: organism-based; conditions: in vivo, 336 h, dose 30-60 mg/kg, time 14 day
Mus musculus = assay: In vivo inhibition of ERK phosphorylation in BALB/c nude mouse xenografted with rat L6 cells harboring FGFR1 V561M mutant assessed as suppression of ERK level in tumor at 60 mg/kg by Western blotting analysis; type: functional, organism-based
[29] = Toxicity in BALB/c nude mouse xenografted with human NCI-H1581 cells assessed as change in heart weight and measured after 14 days; type: tissue-based; conditions: 336 h, time 14 day
[30] = Toxicity in BALB/c nude mouse xenografted with human NCI-H1581 cells assessed as change in liver weight and measured after 14 days; conditions: 336 h, time 14 day
[31] = Toxicity in BALB/c nude mouse xenografted with human NCI-H1581 cells assessed as change in lung weight and measured after 14 days; type: tissue-based; conditions: 336 h, time 14 day
[32] = Toxicity in BALB/c nude mouse xenografted with human NCI-H1581 cells assessed as change in AST level at 60 mg/kg; type: organism-based; conditions: in vivo
NCI-H1581 [33] = assay: Antitumor activity against human NCI-H1581 cells xenografted in BALB/c nude mouse assessed as inhibition of tumor cell proliferation by Ki-67 staining based analysis; type: functional

Sequence of Fibroblast growth factor receptor 3 (P22607 23-806 V555M limits assumed): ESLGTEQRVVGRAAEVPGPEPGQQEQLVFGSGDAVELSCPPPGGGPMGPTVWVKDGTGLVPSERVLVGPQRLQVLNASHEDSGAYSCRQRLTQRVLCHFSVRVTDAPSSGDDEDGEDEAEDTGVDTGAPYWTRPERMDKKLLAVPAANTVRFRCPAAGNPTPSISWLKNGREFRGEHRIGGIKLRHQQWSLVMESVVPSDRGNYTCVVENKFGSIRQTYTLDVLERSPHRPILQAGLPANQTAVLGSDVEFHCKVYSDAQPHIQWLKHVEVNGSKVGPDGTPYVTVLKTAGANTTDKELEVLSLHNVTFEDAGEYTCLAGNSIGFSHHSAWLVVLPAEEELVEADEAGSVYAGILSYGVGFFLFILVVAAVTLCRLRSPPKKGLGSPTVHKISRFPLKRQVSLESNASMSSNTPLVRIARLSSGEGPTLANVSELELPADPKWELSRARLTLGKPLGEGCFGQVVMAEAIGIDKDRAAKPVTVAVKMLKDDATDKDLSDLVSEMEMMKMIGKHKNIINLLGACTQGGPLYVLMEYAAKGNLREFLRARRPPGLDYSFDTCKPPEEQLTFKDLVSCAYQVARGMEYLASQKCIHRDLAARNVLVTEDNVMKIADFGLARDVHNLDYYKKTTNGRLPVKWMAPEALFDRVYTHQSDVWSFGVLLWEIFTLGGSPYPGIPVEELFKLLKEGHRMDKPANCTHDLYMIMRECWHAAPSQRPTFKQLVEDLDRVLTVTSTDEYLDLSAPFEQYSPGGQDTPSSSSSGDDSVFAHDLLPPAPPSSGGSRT
Sequence of Fibroblast growth factor receptor 2 (P21802 22-821 limits assumed): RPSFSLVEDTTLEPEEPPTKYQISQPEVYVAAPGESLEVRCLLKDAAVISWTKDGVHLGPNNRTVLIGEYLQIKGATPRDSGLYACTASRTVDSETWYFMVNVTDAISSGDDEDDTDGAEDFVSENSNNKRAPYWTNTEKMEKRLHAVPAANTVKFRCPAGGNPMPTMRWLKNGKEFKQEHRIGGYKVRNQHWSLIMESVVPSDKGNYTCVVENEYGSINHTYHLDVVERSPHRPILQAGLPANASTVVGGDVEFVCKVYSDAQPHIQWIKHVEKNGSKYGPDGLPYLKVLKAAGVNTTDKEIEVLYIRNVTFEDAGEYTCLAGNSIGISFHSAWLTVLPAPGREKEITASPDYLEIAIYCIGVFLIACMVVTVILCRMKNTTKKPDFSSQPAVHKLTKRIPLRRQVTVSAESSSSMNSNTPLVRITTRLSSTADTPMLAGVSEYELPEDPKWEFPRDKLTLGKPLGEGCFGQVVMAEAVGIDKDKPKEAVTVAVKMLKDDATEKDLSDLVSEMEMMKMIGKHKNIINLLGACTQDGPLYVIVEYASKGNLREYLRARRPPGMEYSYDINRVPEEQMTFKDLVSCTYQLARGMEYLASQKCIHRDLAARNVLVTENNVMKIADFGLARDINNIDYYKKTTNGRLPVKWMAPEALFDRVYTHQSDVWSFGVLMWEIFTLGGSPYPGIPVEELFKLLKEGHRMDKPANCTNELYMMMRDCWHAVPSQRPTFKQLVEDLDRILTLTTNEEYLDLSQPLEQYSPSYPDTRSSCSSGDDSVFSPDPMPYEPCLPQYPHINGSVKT
Sequence of Fibroblast growth factor receptor 4 (P22455 whole entry): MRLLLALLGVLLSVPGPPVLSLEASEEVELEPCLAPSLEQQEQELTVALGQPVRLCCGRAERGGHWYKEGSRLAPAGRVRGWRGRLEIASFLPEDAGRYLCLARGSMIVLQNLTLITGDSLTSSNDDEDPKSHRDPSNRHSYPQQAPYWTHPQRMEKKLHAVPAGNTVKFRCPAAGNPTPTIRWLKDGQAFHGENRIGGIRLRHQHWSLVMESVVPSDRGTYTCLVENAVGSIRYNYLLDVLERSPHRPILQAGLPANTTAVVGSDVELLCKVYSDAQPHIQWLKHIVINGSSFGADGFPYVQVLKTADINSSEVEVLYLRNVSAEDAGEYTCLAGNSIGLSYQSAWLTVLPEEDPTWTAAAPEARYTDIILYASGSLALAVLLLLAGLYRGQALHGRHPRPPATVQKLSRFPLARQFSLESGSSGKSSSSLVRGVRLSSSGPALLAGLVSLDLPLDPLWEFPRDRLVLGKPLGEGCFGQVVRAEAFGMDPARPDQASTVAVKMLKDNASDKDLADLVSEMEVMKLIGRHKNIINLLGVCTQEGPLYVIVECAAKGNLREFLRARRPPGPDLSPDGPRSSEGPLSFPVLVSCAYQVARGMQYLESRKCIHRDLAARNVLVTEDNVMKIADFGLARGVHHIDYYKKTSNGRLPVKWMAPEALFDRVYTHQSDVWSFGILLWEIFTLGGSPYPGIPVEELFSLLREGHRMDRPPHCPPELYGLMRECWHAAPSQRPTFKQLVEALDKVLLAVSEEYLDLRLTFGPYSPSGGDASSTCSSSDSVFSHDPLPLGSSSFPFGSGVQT

IC50 [1]: 4.3 nM
IC50 [2]: 486 nM
Activity [4]: Not active; Reduced Affinities Observed
Cmax [11]: 816 ng/mL
Tmax [12]: 0.5 h
half-life [13]: 5.18 h
AUC(0-inf) [14]: 5400 ng·h/mL
bioavailability [15]: 47.7%
SMILES: C=CC(=O)Nc1ccc(Nc2nc(Nc3ccc(N4C[C@@H](C)N[C@@H](C)C4)c(OC)c3)ncc2Cl)cc1Cl
Activity (NCI-H1581 [3]): Active
Activity (L6): Active
inhibition (NCI-H1581 [5]): Dose-dependent-effect
inhibition (A549): Active
inhibition (NCI-H1581 [6]): Dose-dependent-effect
inhibition (NCI-H1581 [7]): Dose-dependent-effect
inhibition (NCI-H1581 [8]): Dose-dependent-effect
inhibition (NCI-H1581 [9]): Active
inhibition (NCI-H1581 [10]): Active; Greater Inhibition Observed Compared To Infigratinib
Activity [16]: Non-toxic
Activity [17]: Non-toxic
Activity [18]: Non-toxic
Activity [19]: Non-toxic
Activity [20]: Non-toxic
Activity [21]: Non-toxic
inhibition in vivo at 30 mg/kg [22]: 48%
Activity [23]: Non-toxic
Activity [24]: Non-toxic
Activity [25]: Non-toxic
Activity [26]: Non-toxic
Activity [27]: Non-toxic
Activity [28]: Non-toxic
inhibition (Mus musculus): Active
Activity [29]: Non-toxic
Activity [30]: Non-toxic
Activity [31]: Non-toxic
Activity [32]: Non-toxic
Activity (NCI-H1581 [33]): Active
